Test results reported in the NIST ThermoML archive (doi:10.1021/je200302h).

Details: Liquid, Drop weight

O=C=O [carbon dioxide] + O
interfacial tension [mN/m]
Details | 8380 kPa | 10440 kPa | 13890 kPa | 17340 kPa | 20790 kPa
298.15 K | 25.65 | 25.15 | 24.85 | 24.9 | 25
313.15 K | 22.23 | 22.16 | 23.33 | 23.41 | 25.07
323.15 K | – | 23.05 | 22.74 | 24.27 | 23.5
333.15 K | – | – | 23.36 | 23.58 | 22.8
